Laboratory results published in ChEMBL document CHEMBL1201862, “PubChem BioAssay data set” (2004).
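Results reflect a 48-hour exposure of cells in 96-well plates to compound at five concentrations. GI50 is the concentration that inhibits growth by half.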 Activity calls are given as the source filed them. Cut-off read from the data, not from the text of the source: active = GI50 up to about 1.1 µM and inactive = higher.

Key:
Assay in all cases: NCI-60 cell line screen, 48 h
UACC-257 = system: UACC-257
U-251 = system: U-251
NCI-H460 = system: NCI-H460
SN12C = system: SN12C
NCI-H522 = system: NCI-H522
SW-620 = system: SW-620
CCRF-CEM = system: CCRF-CEM
LOX IMVI = system: LOX IMVI
A549 = system: A549
SNB-75 = system: SNB-75
HCC 2998 = system: HCC 2998
EKVX = system: EKVX
IGROV-1 = system: IGROV-1
SNB-19 = system: SNB-19
RXF 393 = system: RXF 393
KM12 = system: KM12
MOLT-4 = system: MOLT-4
OVCAR-5 = system: OVCAR-5
SK-OV-3 = system: SK-OV-3
HT-29 = system: HT-29
A498 = system: A498
ACHN = system: ACHN
DMS-114 = system: DMS-114
HCT-15 = system: HCT-15
786-0 = system: 786-0
SK-MEL-2 = system: SK-MEL-2
UO-31 = system: UO-31
NCI-H23 = system: NCI-H23
TK-10 = system: TK-10
SF-268 = system: SF-268
RPMI-8226 = system: RPMI-8226
M14 = system: M14
SF-295 = system: SF-295
KM-20L2 = system: KM-20L2
SNB-78 = system: SNB-78
COLO 205 = system: COLO 205
NCI-H226 = system: NCI-H226
M19-MEL = system: M19-MEL
OVCAR-8 = system: OVCAR-8
DMS-273 = system: DMS-273
UACC-62 = system: UACC-62
HL-60 = system: HL-60
Malme-3M = system: Malme-3M
OVCAR-3 = system: OVCAR-3
SF-539 = system: SF-539
SK-MEL-5 = system: SK-MEL-5
SK-MEL-28 = system: SK-MEL-28
OVCAR-4 = system: OVCAR-4
LXFL 529 = system: LXFL 529
K562 = system: K562
CAKI-1 = system: CAKI-1
HCT-116 = system: HCT-116
HOP-62 = system: HOP-62
DLD-1 = system: DLD-1
SR = system: SR
HOP-92 = system: HOP-92
HOP-18 = system: HOP-18

O=[N+]([O-])c1cc([N+](=O)[O-])c(/C=C/c2ccc(Cl)c(Cl)c2)cc1/C=C/c1ccc(Cl)c(Cl)c1
GI50 (UACC-257): 23.4 µM (inactive) | GI50 (U-251): 33 µM (inactive) | GI50 (NCI-H460): 30.4 µM (inactive) | GI50 (SN12C): 21.2 µM (inactive) | GI50 (NCI-H522): 21.5 µM (inactive) | GI50 (SW-620): 28.2 µM (inactive) | GI50 (CCRF-CEM): 21.7 µM (inactive) | GI50 (LOX IMVI): 23.7 µM (inactive) | GI50 (A549): 41.3 µM (inactive) | GI50 (SNB-75): 29 µM (inactive) | GI50 (HCC 2998): 30.3 µM (inactive) | GI50 (EKVX): 44.1 µM (inactive) | GI50 (IGROV-1): 22.9 µM (inactive) | GI50 (SNB-19): 25.6 µM (inactive) | GI50 (RXF 393): 20.8 µM (inactive) | GI50 (KM12): 18.5 µM (inactive) | GI50 (MOLT-4): 23.2 µM (inactive) | GI50 (OVCAR-5): 36.1 µM (inactive) | GI50 (SK-OV-3): 64.6 µM (inactive) | GI50 (HT-29): 28.1 µM (inactive) | GI50 (A498): > 100 µM (inactive) | GI50 (ACHN): 22.5 µM (inactive) | GI50 (DMS-114): 24.5 µM (inactive) | GI50 (HCT-15): 21.2 µM | GI50 (786-0): 24.7 µM (inactive) | GI50 (SK-MEL-2): 24.4 µM (inactive) | GI50 (UO-31): 17.5 µM (inactive) | GI50 (NCI-H23): 20.4 µM (inactive) | GI50 (TK-10): 52.5 µM (inactive) | GI50 (SF-268): 25.8 µM (inactive) | GI50 (RPMI-8226): 19.3 µM (inactive) | GI50 (M14): 23.1 µM (inactive) | GI50 (SF-295): 25.6 µM (inactive) | GI50 (KM-20L2): 31 µM (inactive) | GI50 (SNB-78): 47.4 µM (inactive) | GI50 (COLO 205): 18.7 µM (inactive) | GI50 (NCI-H226): 24.6 µM (inactive) | GI50 (M19-MEL): 21.4 µM (inactive) | GI50 (OVCAR-8): 29.2 µM (inactive) | GI50 (DMS-273): 28.4 µM (inactive) | GI50 (UACC-62): 27.5 µM (inactive) | GI50 (HL-60): 22.2 µM (inactive) | GI50 (Malme-3M): 25.2 µM (inactive) | GI50 (OVCAR-3): 17.5 µM (inactive) | GI50 (SF-539): 21.9 µM (inactive) | GI50 (SK-MEL-5): 18.9 µM (inactive) | GI50 (SK-MEL-28): 26.5 µM (inactive) | GI50 (OVCAR-4): 38.7 µM (inactive) | GI50 (LXFL 529): 23.6 µM (inactive) | GI50 (K562): 27.7 µM (inactive) | GI50 (CAKI-1): 31.4 µM (inactive)

CC1CCc2c(sc3ncnc(N/N=C/c4ccc(Cl)c(Cl)c4)c23)C1 (centres undefined)
GI50 (UACC-257): 31 µM (inactive) | GI50 (U-251): 5.2 µM (inactive) | GI50 (NCI-H460): 7.4 µM (inactive) | GI50 (SN12C): 19.4 µM (inactive) | GI50 (NCI-H522): 5.45 µM (inactive) | GI50 (HCT-116): 4.55 µM (inactive) | GI50 (SW-620): 6.07 µM (inactive) | GI50 (CCRF-CEM): 4.3 µM (inactive) | GI50 (LOX IMVI): 11.9 µM (inactive) | GI50 (A549): 4.13 µM (inactive) | GI50 (SNB-75): 15.1 µM (inactive) | GI50 (HCC 2998): 23.6 µM (inactive) | GI50 (EKVX): 25 µM (inactive) | GI50 (IGROV-1): 37.2 µM (inactive) | GI50 (SNB-19): 17.5 µM (inactive) | GI50 (HOP-62): 25.2 µM (inactive) | GI50 (RXF 393): 20.9 µM (inactive) | GI50 (DLD-1): 9.33 µM (inactive) | GI50 (MOLT-4): 7.4 µM (inactive) | GI50 (OVCAR-5): 32.7 µM (inactive) | GI50 (SK-OV-3): 25.2 µM (inactive) | GI50 (HT-29): 13.6 µM (inactive) | GI50 (ACHN): 5.38 µM (inactive) | GI50 (DMS-114): 3.79 µM (inactive) | GI50 (HCT-15): 9.73 µM | GI50 (786-0): 15.6 µM (inactive) | GI50 (SK-MEL-2): 10.3 µM (inactive) | GI50 (UO-31): 12.2 µM (inactive) | GI50 (NCI-H23): 13.2 µM (inactive) | GI50 (TK-10): 23.7 µM (inactive) | GI50 (SF-268): 13.3 µM (inactive) | GI50 (RPMI-8226): 13.2 µM (inactive) | GI50 (M14): 14.3 µM (inactive) | GI50 (SF-295): 11.4 µM (inactive) | GI50 (KM-20L2): 4.69 µM (inactive) | GI50 (COLO 205): 6.17 µM (inactive) | GI50 (NCI-H226): 16.4 µM (inactive) | GI50 (M19-MEL): 19.8 µM (inactive) | GI50 (OVCAR-8): 17.9 µM (inactive) | GI50 (DMS-273): 7.98 µM (inactive) | GI50 (UACC-62): 18.2 µM (inactive) | GI50 (HL-60): 22.2 µM (inactive) | GI50 (Malme-3M): 31.2 µM (inactive) | GI50 (OVCAR-3): 17 µM (inactive) | GI50 (SF-539): 21.7 µM (inactive) | GI50 (SK-MEL-5): 16.7 µM (inactive) | GI50 (SK-MEL-28): 21.2 µM (inactive) | GI50 (K562): 4.4 µM (inactive) | GI50 (SR): 4.83 µM (inactive) | GI50 (CAKI-1): 26.2 µM (inactive)

CCCCOP(=O)(OCCCC)/C(C#N)=C/c1ccco1
GI50 (UACC-257): 40.1 µM (inactive) | GI50 (U-251): > 100 µM (inactive) | GI50 (HOP-92): 45.3 µM (inactive) | GI50 (NCI-H460): > 100 µM (inactive) | GI50 (HCT-116): > 100 µM (inactive) | GI50 (CCRF-CEM): 12.4 µM (inactive) | GI50 (SNB-75): 27.2 µM (inactive) | GI50 (IGROV-1): > 100 µM (inactive) | GI50 (SNB-19): 94.6 µM (inactive) | GI50 (HOP-62): > 100 µM (inactive) | GI50 (RXF 393): 82.8 µM (inactive) | GI50 (KM12): 52.6 µM (inactive) | GI50 (OVCAR-5): > 100 µM (inactive) | GI50 (SK-OV-3): > 100 µM (inactive) | GI50 (HT-29): > 100 µM (inactive) | GI50 (A498): 77.8 µM (inactive) | GI50 (ACHN): 95.7 µM (inactive) | GI50 (DMS-114): 64.9 µM (inactive) | GI50 (SK-MEL-2): > 100 µM (inactive) | GI50 (UO-31): 25.8 µM (inactive) | GI50 (NCI-H23): > 100 µM (inactive) | GI50 (SF-268): 45.2 µM (inactive) | GI50 (RPMI-8226): 45.2 µM (inactive) | GI50 (M14): > 100 µM (inactive) | GI50 (SF-295): 51.3 µM (inactive) | GI50 (KM-20L2): > 100 µM (inactive) | GI50 (SNB-78): 43.9 µM (inactive) | GI50 (COLO 205): > 100 µM (inactive) | GI50 (M19-MEL): > 100 µM (inactive) | GI50 (UACC-62): > 100 µM (inactive) | GI50 (HL-60): 22.8 µM (inactive) | GI50 (Malme-3M): 94.2 µM (inactive) | GI50 (OVCAR-3): 34.7 µM (inactive) | GI50 (SF-539): > 100 µM (inactive) | GI50 (SK-MEL-28): > 100 µM (inactive) | GI50 (OVCAR-4): 91.6 µM (inactive) | GI50 (LXFL 529): > 100 µM (inactive)

COc1cc(C2c3cc4c(cc3[C@@H](NCCN3CCCCC3)C3COC(=O)[C@H]23)OCO4)cc(OC)c1O (some centres undefined)
GI50 (UACC-257): 2.93 µM (inactive) | GI50 (U-251): 0.122 µM (active) | GI50 (HOP-92): 0.265 µM (active) | GI50 (SN12C): 2.04 µM (inactive) | GI50 (HCT-116): 1.82 µM (inactive) | GI50 (SW-620): 0.621 µM (active) | GI50 (CCRF-CEM): 0.055 µM (active) | GI50 (HOP-18): 0.509 µM (active) | GI50 (LOX IMVI): 0.204 µM (active) | GI50 (A549): 0.0484 µM (active) | GI50 (SNB-75): 0.256 µM (active) | GI50 (EKVX): 1.63 µM (inactive) | GI50 (IGROV-1): 1.46 µM (inactive) | GI50 (SNB-19): 0.323 µM (active) | GI50 (HOP-62): 0.0624 µM (active) | GI50 (KM12): 1.08 µM (active) | GI50 (DLD-1): 1.6 µM (inactive) | GI50 (MOLT-4): < 0.01 µM (active) | GI50 (OVCAR-5): 1.69 µM (inactive) | GI50 (SK-OV-3): 0.0526 µM (active) | GI50 (HT-29): 1.23 µM (inactive) | GI50 (A498): 0.237 µM (active) | GI50 (ACHN): 0.671 µM (active) | GI50 (HCT-15): 0.337 µM | GI50 (786-0): 0.188 µM (active) | GI50 (SK-MEL-2): 2.06 µM (inactive) | GI50 (UO-31): 0.566 µM (active) | GI50 (NCI-H23): 0.167 µM (active) | GI50 (TK-10): 1.89 µM (inactive) | GI50 (SF-268): 0.628 µM (active) | GI50 (RPMI-8226): 0.4 µM (active) | GI50 (M14): 0.324 µM (active) | GI50 (SF-295): 0.0986 µM (active) | GI50 (KM-20L2): 1.53 µM (inactive) | GI50 (SNB-78): 2.7 µM (inactive) | GI50 (COLO 205): 0.782 µM (active) | GI50 (NCI-H226): 0.0324 µM (active) | GI50 (M19-MEL): 1 µM (active) | GI50 (OVCAR-8): 0.998 µM (active) | GI50 (DMS-273): 0.123 µM (active) | GI50 (UACC-62): 0.298 µM (active) | GI50 (HL-60): 0.0322 µM (active) | GI50 (Malme-3M): 0.451 µM (active) | GI50 (OVCAR-3): 1.04 µM (active) | GI50 (SF-539): 0.209 µM (active) | GI50 (SK-MEL-5): 0.325 µM (active) | GI50 (SK-MEL-28): 2.42 µM (inactive) | GI50 (OVCAR-4): 0.27 µM (active) | GI50 (LXFL 529): 2 µM (inactive) | GI50 (K562): 0.822 µM (active) | GI50 (CAKI-1): 0.0802 µM (active)
